GI50 and TGI data for 11 compounds are collected here from PubChem BioAssay (NCI).

Among the test systems are SK-MEL-28 melanoma; SN12C renal; RXF 393 renal; NCI-H522 lung; OVCAR-5 ovarian; NCI-H23 lung; 786-0 renal; K-562 leukemia; NCI/ADR-RES ovarian; EKVX NSCLC.
Experiment in all cases: growth of human tumour cells (NCI), 48 h

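Dose response: 5 concentrations. Exposure: 48 h. Format: 96-well plates. Endpoint: linear interpolation; highest concentration if not reached. GI50 = concentration required for 50% inhibition of growth. TGI marks complete inhibition of growth.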

As to `COc1ccc(/C=C2\SC(=Nc3ccccc3)NC2=O)cc1`, the GI50 in the assay on SK-MEL-28 melanoma is 8.06 µM; in the assay with SN12C renal, 9.1 µM; in the assay with RXF 393 renal, 4.68 µM; with NCI-H522 lung, 4.54 µM; in the assay on OVCAR-5 ovarian it was 12.5 µM; with NCI-H23 lung it was 8.6 µM. The GI50 in the assay with 786-0 renal was 8.25 µM; in the assay on K-562 leukemia it was 2.31 µM; in the assay with NCI/ADR-RES ovarian, 4.61 µM. For the same compound, the TGI in the assay on SK-MEL-28 melanoma is 44.8 µM; in the assay on SN12C renal, greater than 100 µM; with RXF 393 renal it was 26.8 µM; with NCI-H522 lung, 24.9 µM; with OVCAR-5 ovarian it was greater than 100 µM; in the assay on NCI-H23 lung it was 80.5 µM. The TGI in the assay on 786-0 renal was 30.1 µM; with K-562 leukemia, greater than 100 µM; in the assay on NCI/ADR-RES ovarian it was greater than 100 µM.
`COc1ccc(/C(C#N)=C/c2cc(OC)c(OC)c(OC)c2)cc1`: the GI50 is 27.4 µM with SK-MEL-28 melanoma; 27.2 µM with SN12C renal; 20.6 µM in the assay with RXF 393 renal; 15.7 µM with NCI-H522 lung; 35.3 µM in the assay with OVCAR-5 ovarian; 20.1 µM with NCI-H23 lung. Besides, the values for the GI50 in the assay on 786-0 renal, in the assay with K-562 leukemia and with NCI/ADR-RES ovarian were 41.3 µM, 4.64 µM and 13.2 µM, respectively. In addition, the TGI in the assay with SK-MEL-28 melanoma is greater than 100 µM; in the assay with SN12C renal, greater than 100 µM; with RXF 393 renal it was greater than 100 µM; with NCI-H522 lung, 56.3 µM; in the assay on OVCAR-5 ovarian, greater than 100 µM; in the assay on NCI-H23 lung, 88.4 µM. Besides, the TGI in the assay on 786-0 renal is greater than 100 µM; in the assay with K-562 leukemia it was 31.3 µM; in the assay on NCI/ADR-RES ovarian it was 65.1 µM.
On to `CC(C)C(=O)c1c(C(F)(F)F)n([O-])c2cc(F)c(F)cc2[n+]1=O`, for which the GI50 is 0.55 µM in the assay with SK-MEL-28 melanoma; 0.288 µM with SN12C renal; 0.456 µM in the assay with RXF 393 renal; 1.96 µM in the assay on NCI-H522 lung; 1.24 µM in the assay with OVCAR-5 ovarian; 0.263 µM in the assay on NCI-H23 lung. For the same compound, the results for the GI50 in the assay on 786-0 renal, in the assay on EKVX NSCLC and in the assay with NCI/ADR-RES ovarian were 0.444 µM, 1530 nM and 0.2 µM, respectively. The TGI in the assay on SK-MEL-28 melanoma amounted to 3.15 µM; in the assay with SN12C renal, 0.767 µM; with RXF 393 renal, 1.19 µM; with NCI-H522 lung it was 6.22 µM; in the assay on OVCAR-5 ovarian, 2.58 µM; in the assay on NCI-H23 lung, 1.16 µM. For the same compound, the TGI is 0.97 µM with 786-0 renal, 3.4 µM with EKVX NSCLC and 0.545 µM in the assay with NCI/ADR-RES ovarian.
For the compound `CC(=O)NC(CSC1=C2NC(=O)\C=C/C=C/C=C\C(C)C(O)CC(=O)/C(C)=C\CC(O)/C=C/C(C)C(O)C(C)C=C(C)C(=O)c3c(O)c(C)cc(c3C1=O)C2=O)C(=O)O` (stereo not given), the TGI in the assay on SK-MEL-28 melanoma was greater than 100 µM; with SN12C renal it was greater than 100 µM; with NCI-H522 lung, 71.8 µM; with OVCAR-5 ovarian, greater than 100 µM; with NCI-H23 lung it was greater than 100 µM; in the assay on 786-0 renal, greater than 100 µM. The TGI in the assay on EKVX NSCLC, with K-562 leukemia and with NCI/ADR-RES ovarian was greater than 100 µM throughout.
Regarding `C1CN(P2(N3CC3)=NP(N3CC3)(N3CC3)=NP(N3CC3)(N3CC3)=N2)CCO1` (stereo not given), the TGI with SK-MEL-28 melanoma, in the assay with SN12C renal, with RXF 393 renal, in the assay on NCI-H522 lung, with OVCAR-5 ovarian and in the assay on NCI-H23 lung was greater than 100 µM throughout. Also, the TGI in the assay on 786-0 renal, in the assay with EKVX NSCLC and with K-562 leukemia was greater than 100 µM in each case.
Consider `NC(=O)c1cccc(OCC(O)CO)c1` (stereo not given), for which the TGI in the assay with SK-MEL-28 melanoma, in the assay on SN12C renal, with NCI-H522 lung, in the assay on OVCAR-5 ovarian, with NCI-H23 lung and in the assay on 786-0 renal was greater than 100 µM throughout. For the same compound, the TGI in the assay on EKVX NSCLC, in the assay on K-562 leukemia and in the assay on NCI/ADR-RES ovarian was greater than 100 µM throughout.
As for `CCOc1ccc(NCC2CC/C(=C\c3ccccc3OC)C2=O)cc1` (stereo not given), the TGI came out at 24.1 µM in the assay on SK-MEL-28 melanoma; 19.4 µM with SN12C renal; 21.4 µM with RXF 393 renal; 4.36 µM with NCI-H522 lung; 32.5 µM with OVCAR-5 ovarian; 34.7 µM in the assay on NCI-H23 lung. Besides, the values for the TGI in the assay with 786-0 renal, in the assay on EKVX NSCLC and in the assay on K-562 leukemia were 8.3 µM, 31.9 µM and greater than 27.5 µM, respectively.
In the case of `Nc1ccc(COC(O)CN2CCCCC2)cc1[N+](=O)[O-]` (stereo not given), the TGI in the assay with SK-MEL-28 melanoma, with SN12C renal, in the assay on RXF 393 renal, in the assay with NCI-H522 lung, in the assay with OVCAR-5 ovarian and in the assay with NCI-H23 lung was greater than 100 µM in each case. Moreover, the TGI in the assay on 786-0 renal, with K-562 leukemia and with NCI/ADR-RES ovarian was greater than 100 µM in each case.
For `COc1ccc(C(=O)CC2=Nc3nnc(CCCCCCCc4nnc5n4C(=O)C(CC(=O)c4ccc(OC)cc4)=N5)n3C2=O)cc1`, the TGI in the assay on SK-MEL-28 melanoma, in the assay with SN12C renal, in the assay on RXF 393 renal, in the assay on NCI-H522 lung, with OVCAR-5 ovarian and with NCI-H23 lung was greater than 100 µM each time. In addition, the TGI in the assay with 786-0 renal, in the assay with EKVX NSCLC and in the assay with K-562 leukemia was greater than 100 µM each time.
Regarding `CC1CC(C)C2OC2(C)C[C@H](C)C(=O)NC(C)C(=O)N(C)[C@H](Cc2c(Br)[nH]c3ccccc23)C(=O)N[C@@H](c2ccc(O)cc2)CC(=O)O1` (stereo not given in full), the TGI is 12.2 µM in the assay with SK-MEL-28 melanoma; greater than 100 µM in the assay on SN12C renal; 4.81 µM in the assay on RXF 393 renal; 0.856 µM in the assay on NCI-H522 lung; 18.8 µM with OVCAR-5 ovarian; greater than 40.4 µM in the assay with NCI-H23 lung. The TGI in the assay with 786-0 renal is 19.1 µM; with EKVX NSCLC, 75.8 µM; in the assay on K-562 leukemia, greater than 77.4 µM.
Regarding `NC(N)=NC(N)=NCCCc1ccco1`, the GI50 in the assay on SK-MEL-28 melanoma is 23.1 µM; in the assay with SN12C renal, 87.2 µM; with RXF 393 renal, 77.5 µM; in the assay on NCI-H522 lung, greater than 500 µM; with OVCAR-5 ovarian it was 148 µM; in the assay on NCI-H23 lung, 463 µM. In addition, the GI50 is 83.5 µM in the assay on 786-0 renal, 24.5 µM in the assay on K-562 leukemia and 66.4 µM in the assay on NCI/ADR-RES ovarian. The TGI with SK-MEL-28 melanoma is 91.3 µM; in the assay on SN12C renal, 253 µM; in the assay on RXF 393 renal it was 237 µM; in the assay on NCI-H522 lung, greater than 500 µM; in the assay with OVCAR-5 ovarian it was greater than 500 µM; in the assay on NCI-H23 lung it was greater than 500 µM. For the same compound, the values for the TGI in the assay on 786-0 renal, in the assay on K-562 leukemia and with NCI/ADR-RES ovarian were 265 µM, 238 µM and 247 µM, respectively.
